Like-named read-outs stand apart in the source and are kept apart here.
Columns and labels:
[1] = in air, 25° C., 60% relative humidity
Protocol: The content of 5-methyltetrahydrofolic acid salt which is quoted in the examples was s determined by HPLC in each case and is given as % area. The water content was determined by a Karl Fischer method.
In order to determine the stabilities of the crystalline salts of 5-methyltetrahydrofolic acid, the substances were stored, together with comparison specimens, in air at 25° C. and at 60% relative humidity. The content of 5-methyltetrahydrofolic acid salt remaining was measured at periodic intervals and is given by comparison with the initial value.

CN1c2c([nH]c(N)nc2=O)NC[C@@H]1CNc1ccc(C(=O)N[C@@H](CCC(=O)[O-])C(=O)[O-])cc1.[Ca+2] [Type II, calcium salt of 5-methyl-(6S)-tetrahydrofolic acid]
Solubility at 20° C. in 0.9% NaCl: 5.8%
Solubility at 20° C. in water: 3.8%

CN1c2c([nH]c(N)nc2=O)NC[C@@H]1CNc1ccc(C(=O)N[C@@H](CCC(=O)[O-])C(=O)[O-])cc1.[Ca+2] [Type III, calcium salt of 5-methyl-(6S)-tetrahydrofolic acid]
Solubility at 20° C. in 0.9% NaCl: 1.5%
Solubility at 20° C. in water: 1.0%

CN1c2c([nH]c(N)nc2=O)NC[C@@H]1CNc1ccc(C(=O)N[C@@H](CCC(=O)[O-])C(=O)[O-])cc1.[Ca+2] [Crystalline calcium salt of 5-methyl-(6S)-tetrahydrofolic ac] [calcium salt of 5-methyl-(6S)-tetrahydrofolic acid]
content of 5-methyltetrahydrofolic acid salt remaining, compared with the initial value ([1]; storage 0 months): 100%
content of 5-methyltetrahydrofolic acid salt remaining, compared with the initial value ([1]; storage 3 months): 98.6%
content of 5-methyltetrahydrofolic acid salt remaining, compared with the initial value ([1]; storage 6 months): 98.7%
content of 5-methyltetrahydrofolic acid salt remaining, compared with the initial value ([1]; storage 12 months): 99.1%
content of 5-methyltetrahydrofolic acid salt remaining, compared with the initial value ([1]; storage 18 months): 99.0%
content of 5-methyltetrahydrofolic acid salt remaining, compared with the initial value ([1]; storage 88 months): 97.8%

CN1c2c([nH]c(N)nc2=O)NC[C@@H]1CNc1ccc(C(=O)N[C@@H](CCC(=O)[O-])C(=O)[O-])cc1.[Ca+2] [Type I, calcium salt of 5-methyl-(6S)-tetrahydrofolic acid]
Solubility at 20° C. in 0.9% NaCl: 1.6%
Solubility at 20° C. in water: 1.1%

CN1c2c([nH]c(N)nc2=O)NC[C@@H]1CNc1ccc(C(=O)N[C@@H](CCC(=O)[O-])C(=O)[O-])cc1.[Ca+2] [Amorphous calcium salt of 5-methyl-(6S)-tetrahydrofolic acid] [reference compound]
content of 5-methyltetrahydrofolic acid salt remaining, compared with the initial value ([1]; storage 0 months): 100%
content of 5-methyltetrahydrofolic acid salt remaining, compared with the initial value ([1]; storage 12 months): 84.2%

Source: patent publication US6441168B1, “Stable crystalline salts of 5-methyltetrahydrofolic acid” (Eprova AG, priority 1999, dated 2002)
